# Measurements reported in patent US4118506A, “Pharmaceutical compositions containing 1,3-dithiol-2-ylidene malonate derivatives” (Nihon Nohyaku Co., Ltd., priority 1976, dated 1978).
# Columns and labels:
# [1] = tested on: acute liver damage induced by carbon tetrachloride; test: protective effect on acute liver damage associated with centrilobular necrosis, carbon tetrachloride model; assay type: in vivo, mouse (dd strain); settings: 250 mg/kg oral 6 h before CCl4, 24 h after CCl4
# Excerpt: Carbon tetrachloride (CCl4) administration induces centrilobular necrosis of the liver associated with loss of diphosphopyridine nucleotide, hepatic glycogen, coenzyme A and increase in neutral fat. Release of several enzymes from the hepatocytes, and increase of enzyme activities in the plasma are recognized as the result of the damage of the liver. A suitable means for evaluating the degree of damage induced by CCl4 or the degree of protection afforded by drugs is to study the plasma glutamic-pyruvic transaminase (p-GPT) activity.
# Methods: The test compounds were dissolved or suspended in olive oil and administered orally at the dose of 250 mg/kg to the mice (Four-week-old male mice-dd strain). After 6 hours, CCl4 was administered orally (0.05 ml/kg as olive oil solution). Animals were killed 24 hours after CCl4 administration, and the liver was grossly observed. The plasma was obtained by centrifugation. Activities of p-GPT were determined by the method of Reitman and Frankel and expressed in Karmen units.
# Score for liver damage index was as follows:
# Each figure indicates average of 5 to 6 mice. Values of p-GPT over 1,000 Karmen unit regarded as 1,000 for calculation of average for convenience.
# [2] = tested on: acute liver damage induced by bromobenzene; test: protective effect on acute liver damage associated with centrilobular necrosis, bromobenzene model; assay type: in vivo, rat (SD)
# Method: Bromobenzene (hereinafter abbreviated as BB), Dimethylnitrosamine (hereinafter abbreviated as DMN) and chloroform (hereinafter abbreviated as CF) resemble carbon tetrachloride in inducing liver damage associated with centrilobular necrosis.
# Test compound or anethol trithion was orally administered to animal at the dose of 100 mg/kg. Twenty four hours after it (in the case of dimethylnitrosamine, exceptionally fifteen hours after it) the animals were sacrificed and blood samples were collected. Indices of hepatotoxicity adoptable in each chemical were measured, from which the efficacy of the compound was evaluated.
# BB male rat 0.75 oral p-GPT activity
# [3] = tested on: chronic liver damage induced by thioacetamide; test: therapeutic effect on chronic liver damage, thioacetamide model (BSP test); assay type: in vivo, rat (Sprague Dawley); settings: Group B, diet + 0.2% compound
# Method: In the tests of this Example, TAA was repeatedly administered to animals to prepare test animals suffering from somewhat chronic liver damages, and then the present compounds were administered thereto to know whether or not the compounds were effective against chronic hepatitis.
# The degree of the liver damage and the therapeutic effects of the compounds were evaluated according to BSP test. The BSP test is a method in which BSP (sulfobromophthalein sodium), a dye known to be quickly metabolized in and excreted from the liver, is intravenously injected into animals and, after a definite period of time, the blood is taken out to measure the amount of BSP remaining in the plasma. In case the animals are suffering from the liver damage, the dye will remain, according to the degree of the damage, at the stage where a major portion of BSP is metabolized and excreted in the case of normal animals.
# Five groups of rats (Sprague Dawley strain) were treated as follows:
# Group A: The rats were orally administered with 100 mg/kg of thioacetamide,at 3 days intervals for 36 days (12 times of the administration), then were submitted for 10 days to a normal diet.
# Group B: The rats were orally administered with 100 mg/kg of thioacetamide at 3 days intervals for 36 days (12 times of the administration), then were submitted for 10 days to the normal diet + 0.2% of compound 4.
# Group C: The rats were submitted to the normal diet as the control.
# Five rats were sacrificed from each group at appropriate intervals for BSP (sulfobromophthalein sodium) test, the results of which were shown as amounts (mg) of BSP remaining in ldl of plasma.
# [4] = tested on: acute liver damage induced by allyl alcohol; test: protective effect on acute liver damage associated with periportal necrosis, allyl alcohol model; assay type: in vivo, mouse (dd strain); settings: 250 mg/kg oral 6 h before allyl alcohol 0.075 ml/kg oral; 24 h after
# Method: The compound of this invention or anethol trithion was orally administered to the male mouse (4 week/old, dd strain) at the dose of 250 mg/kg. Six hours after it, allyl alcohol was orally administered at the dose of 0.075 ml/kg. Twenty four hours after it, the animals were sacrificed to collect blood samples.
# [5] = tested on: acute liver damage induced by D-galactosamine; test: protective effect on acute hepatitis with mesenchymal reaction and discrete lobular necrosis, D-galactosamine model; assay type: in vivo, rat (SD strain); settings: 250 mg/kg oral 6 h before D-galactosamine i.p.
# Method: D-Galactosamine is a compound which induces a discrete lobular necrosis associated with mesenchymal reaction similar to the change observed in human viral hepatitis, so that it is frequently used in producing a model for viral hepatitis.
# The compound of this invention or anethol trithion was administered orally to the male rat (SD strain) at the dose of 250 mg/kg. Six hours after it, D-galactosamine was intraperitoneally administered at the dose of 600 mg/kg. Four hours after it, an additional 300 mg/kg was administered intraperitoneally. Eight hours after it, the animals were sacrificed to collect the blood samples. P-GPT activity and triglyceride in the liver were measured to evaluate the effect of the compound of this invention.
# [6] = tested on: alcohol metabolic function of liver; test: effect on concentration of ethyl alcohol in the blood; assay type: in vivo, mouse; settings: 250 mg/kg oral 6 h before ethanol 1,000 mg/kg
# Method: The test compounds are dissolved or suspended in olive oil and administered orally at the dose of 250 mg/kg to the mice. After 6 hours, 1,000 mg/kg of ethyl alcohol was given orally. Blood was taken in a capillary from caudal vein at the time indicated in the results. The plasma was obtained by centrifugation. The concentration of ethyl alcohol in the plasma was measured by FID type gas liquid chromatography. Five mice were used for each group.
# [7] = bromobenzene 0.75 ml/kg oral, 100 mg/kg oral 6 h before, 24 h after
smiles,measurement,setting,value
"CC(C)OC(=O)C(C(=O)OC(C)C)=C1SC=CS1 [Compound 4, diisopropyl 1,3-dithiol-2-ylidene malonate]",Liver Damage Index,"[1]; 0 normal, 2 slightly recognized, 4 clearly observable, 6 heavy damage, average of 5 to 6 mice",0.0
same,p-GPT,"[1]; values over 1,000 taken as 1,000",36 Karmen units
same,indices of hepatotoxicity,"[2]; BB, DMN and CF models together, Table 4",normalized the indices of hepatotoxicity
same,BSP,[2]; [7],10.6 ± 4.5 mg/dL
same,p-GPT,[2]; [7],23 ± 3.7 Karmen unit
same,BSP remaining in plasma,[3]; 2 days after compound administration,7.2 ± 2.5 mg/dL
same,BSP remaining in plasma,[3]; 5 days after compound administration,2.8 ± 0.7 mg/dL
same,BSP remaining in plasma,[3]; 10 days after compound administration,0.5 ± 0.1 mg/dL
same,BSP,[4],17 ± 3.2
same,Triglyceride in the liver,[5],4.4 ± 0.68 mg/g
same,p-GPT,[5],51 ± 15 Karmen unit
same,Concentration of Ethyl alcohol in Plasma,[6]; 0 min,25 ± 12 ppm
same,Concentration of Ethyl alcohol in Plasma,[6]; 5 min,582 ± 143 ppm
same,Concentration of Ethyl alcohol in Plasma,[6]; 15 min,468 ± 30 ppm
same,Concentration of Ethyl alcohol in Plasma,[6]; 30 min,220 ± 87 ppm
same,Concentration of Ethyl alcohol in Plasma,[6]; 60 min,29 ± 17 ppm
same,Concentration of Ethyl alcohol in Plasma,[6]; 120 min,not detected
